According to publication PMC5515887, “Ruthenium-conjugated chrysin analogues modulate platelet activity, thrombus formation and haemostasis with enhanced efficacy” (Scientific Reports, 2017):

What was measured:
[1] = system: inside-out signalling to integrin αIIbβ3; details: PRP; CRP-XL 0.5 μg/mL
Protocol: The level of fluorescence obtained with vehicle control was taken as 100% to calculate the extent of inhibition in chrysin and its derivatives-treated samples. R represents ‘resting’ platelets. Cumulative data represent mean ± S.D. (n = 4). […] Following incubation, clotting was initiated by the addition of 1 U/mL thrombin and the clot retraction was monitored for three hours. The remaining clot weight at three hours was measured to analyse the extent of retraction process. The image shown on the right is representative of four separate experiments. *Indicates significance with respect to controls and ^#indicates significance with respect to the respective chrysin concentrations; p values shown (*^,# p < 0.05, **^,## p < 0.01 and ***^,### p < 0.001) are as calculated by one-way ANOVA using Graphpad Prism.
The platelets (PRP) were treated with a vehicle control [0.1% (v/v) DMSO] or with different concentrations of chrysin and its synthetic derivatives prior to activation with CRP-XL (0.5 µg/mL). The levels of fibrinogen binding and P-selectin exposure were measured using FITC-labelled anti-human fibrinogen antibodies (Dako, UK) and PECy5-labelled CD62P antibodies (BD Biosciences, UK), respectively. The median fluorescence intensity was used to assess the levels of fibrinogen binding and P-selectin exposure on the platelet surface. The level of fluorescence obtained with the vehicle control was taken as 100% when compared with the treated samples.

[2] = system: human washed platelets; test: CRP-XL-induced aggregation of human washed platelets (optical aggregometry); format: cell-based; details: CRP-XL 0.5 μg/mL
Protocol: To determine the effects of chrysin and thio-chrysin and their Ru-complexes in the modulation of platelet activation, aggregation assays were performed using cross-linked collagen-related peptide (CRP-XL) as a platelet agonist, by optical aggregometry. Firstly, to determine the effects of chrysin and its derivatives on isolated platelets, aggregation assays were performed using human washed platelets (devoid of plasma proteins and other blood cells).
Figure 2 Effects of chrysin and its derivatives in washed platelet aggregation. […] The aggregation traces shown are representative of three separate experiments.
(§1) The preparation of human platelets and aggregation assays were performed using standard protocols as described by us previously, [16]. Briefly, human blood was collected in 3.2% citrate containing vacutainers via venepuncture from healthy, aspirin-free individuals with informed consent in accordance with the methods approved by the University of Reading Research Ethics Committee. All methods were performed in accordance with the relevant institutional and national guidelines and regulations. Blood samples were centrifuged at 102 g for 20 minutes at room temperature to separate the PRP, which was used in aggregation, flow cytometry, static platelet adhesion, calcium mobilisation and clot retraction assays. For the preparation of washed platelets, 50 mL of blood samples were mixed with 7.5 mL of ACD (acid citrate dextrose) (20 g/L glucose, 25 g/L sodium citrate and 15 g/L citric acid) and centrifuged at 102 g for 20 minutes at room temperature. The PRP was carefully aspirated from the other blood cells prior to mixing with 3 mL of ACD and centrifuging at 1413 g for 10 minutes at room temperature. The resulting platelet pellet was re-suspended in modified Tyrodes-HEPES buffer (2.9 mM KCl, 134 mM NaCl, 0.34 mM Na2HPO4.12H20, 1 mM MgCl2, 12 mM NaHCO3, 20 mM HEPES, pH 7.3) and washed by centrifuging again at 1413 g for 10 minutes. The resulting platelet pellet was suspended in modified Tyrodes-HEPES buffer at a density of 4 × 10^8 cells/mL for aggregation, dense granule secretion, cellular uptake studies and calcium mobilisation assays. Human platelet aggregation was performed using CRP-XL as an agonist in the presence and absence of various concentrations of chrysin and its synthetic derivatives by optical aggregometry. A vehicle control [DMSO at a concentration of less than 0.1% (v/v)] was included in all the experiments. Dense granule secretion in platelets was determined by measuring the ATP release using the luciferin-luciferase reagent by lumi-aggregometry (Chrono-Log, USA). SDS-PAGE and immunoblotting analysis were performed using standard protocols. The rabbit anti-phospho-specific antibodies for human AKT pS473, FAK pY397 and Src pY527 were obtained from Abcam, UK and rabbit anti-human 14-3-3ζ (Santa Cruz Biotechnology, USA) was used to detect protein 14-3-3ζ as a loading control in immunoblot assays. The Cy5-conjugated goat anti-rabbit IgG (Life technologies, UK) was used as the secondary antibody.

[3] = system: human platelet-rich plasma (PRP); test: CRP-XL-induced platelet aggregation in human platelet-rich plasma (optical aggregometry); format: cell-based; details: PRP, CRP-XL 0.5 μg/mL
Protocol: Therefore, to determine the effects of various concentrations of chrysin and its derivatives in the presence of plasma proteins, aggregation assays were performed using human platelet-rich plasma (PRP) and 0.5 μg/mL CRP-XL.
Figure 3 Impact of chrysin and its derivatives on platelet activation in platelet-rich plasma. […] The platelet aggregation was monitored for 5 minutes. The traces shown are representative of three separate experiments.
as §1

[4] = system: α-granule secretion in platelets; test: P-selectin exposure by flow cytometry (marker for α-granule secretion); format: cell-based, human; details: PRP; CRP-XL 0.5 μg/mL
Protocol: Platelets primarily contain two types of granules (α- and dense granules) and the activation of platelets releases the granule contents to the external environment, where they play important roles in the stimulation of additional platelets and their recruitment to the growing thrombus. […] However, chrysin affected α-granule secretion only at a minimum concentration of 50 μM in platelets.
Figure 5 Chrysin and its derivatives affect granule secretion in platelets. […] The level of P-selectin (as a marker for α-granule secretion) was quantified using PECy5-labelled anti-human P-selectin antibodies by flow cytometry. […] R represents ‘resting’ platelets. […] Platelets were then activated with 0.5 μg/mL CRP-XL and the ATP release was monitored for 5 minutes by lumi-aggregometry. The traces shown are representative of three separate experiments.

[5] = system: outside-in signalling by integrin αIIbβ3; test: Clot retraction assay (outside-in signalling by integrin αIIbβ3); format: cell-based, human; details: PRP; 50 μM compound; 1 U/mL thrombin; three hours
Protocol: R represents ‘resting’ platelets.
Following fibrinogen binding, integrin αIIbβ3 triggers signalling into the platelets in order to induce clot retraction and promote wound healing. This also represents a late downstream signalling event in the platelet activation process. To determine whether chrysin and its derivatives affect outside-in signalling by integrin αIIbβ3, a clot retraction assay was performed. […] At three hours, the clot obtained with the vehicle control [0.1% (v/v) DMSO] retracted to around 50 mg.
PRP (200 µL) was mixed with 5 µL of red blood cells and the final volume was made to 950 µL with modified Tyrodes-HEPES buffer in the presence and absence of various concentrations of chrysin or its synthetic derivatives. Clot formation was initiated by adding 1 U/mL (50 µL) thrombin. A glass capillary was placed in middle of the tube and the clot retraction was observed over a period of 3 hours at room temperature. Clot weight was measured as a marker for clot retraction after 3 hours.

## chlorido [(5-oxo-κO)-7-hydroxy-(2-phenyl)-4H-chromen-4-onato-κO] (η6-p-cymene)ruthenium(II) [Ru-chrysin]
[1]
  concentrations with significantly more effects on fibrinogen binding than the respective concentrations of chrysin: more than 25 μM
[2]
  effect on CRP-XL-induced platelet aggregation in washed platelets: inhibited CRP-XL-induced platelet aggregation in a concentration-dependent manner
[3]; 6.25 μM and 12.5 μM compound
  effect on platelet aggregation at lower concentrations: did not significantly affect the platelet aggregation
[4]
  concentrations that significantly inhibit α-granule secretion: ≥ 25 µM

## Cc1ccc(C(C)C)cc1.Cc1ccc(C(C)C)cc1.[Cl-].[Cl-].[Cl-].[Cl-].[Ru+2].[Ru+2] [Ru-Cl, bis [dichlorido (η^6-p-cymene)] ruthenium(II), reference compound]
[2]
  effect on CRP-XL-induced platelet aggregation in washed platelets: failed to affect platelet aggregation
[3]
  effect on platelet aggregation in PRP: failed to show any inhibitory effects

## Oc1cc(O)c2c(=S)cc(-c3ccccc3)oc2c1 [thio-chrysin]
[2]
  effect on CRP-XL-induced platelet aggregation in washed platelets: no significant differences
[5]
  effect on clot retraction: significant inhibitory effect
[4]
  concentrations that significantly inhibit α-granule secretion: ≥ 25 µM
